Reference: patent US5439940A, “Benz[e]indene derivatives” (priority 1992, dated 1995)
Read-outs that look alike come from different tables or passages of the source.

Assays:
[1] = system: carrageen-induced paw volume; experiment: Antiinflammatory effect (carrageen paw, Winter et al.); assay type: in vivo, rat (Wistar); details: po, read-out: Antiinflammatory effect ID30
Method: The antiinflammatory effect was investigated on Wistar rats weighing 150-180 g according to the method of Winter et al. 0.1 ml of a 1 percent carrageen suspension was injected subcutaneously into the plantar region of one of the hind paws. The animals were fasted for 12 hours and received drinking water ad libitum. One hour before treatment with the test compound the rats were hydrated orally with 30 ml/kg of tap water. The test compounds and the vehicle were administered p.o. in a volume of 10 ml/kg, then 1 hour later carrageen was applied. The volume of the treated paw was measured by mercury-plethysmometer before and 3 hours after injection in such a way that displacement of the liquid arising from the volume alteration was indicated on a millimeter scale. […] A., Risley, E. A., Nuss, G. W.: Proc. Soc.

[2] = system: acetic acid writhing reactions; experiment: Analgesic effect (acetic acid writhing, Newbould); assay type: in vivo, mouse (NMRI); details: Mus musculus, 1 h, read-out: Analgesic effect ID50
Method: The characteristic "writhing reactions" were counted for a period of 5 minutes, starting from the fifth minute after challenge. […] Each group of animals consisted of at least 10 mice. […]

[3] = Acute toxicity on mice (oral LD50); details: mouse, in vivo, 7 days observation, maximal dose 1000 mg/kg
Method: Mice belonging to the NMRI strain (body weight 20-25 g, both male and female) were used, 6 to 10 animals for each dose. The test compound was administered orally in a volume of 20 ml/kg. The applied maximal dose was 1000 mg/kg. […] The mice were kept in a plastic cage at room temperature. The animals got tap water and standard mouse fodder ad libitum. The toxicity data were determined by the aid of the method of Litchfield and Wilcoxon [Litchfield, J. T., Wilcoxon, F. W.: J. Pharmacol. Exp. Ther., 96, 99 (1949)].

hexobarbital narcosis = experiment: Hexobarbital narcosis potentiating effect on mice; assay type: in vivo, mouse
Method: The hexobarbital narcosis potentiating effect was examined on mice. Groups consisting of 6 animals were used for each dose. The animals were treated orally with the test compound, whereby sleeping was induced 1 hour later by administering a 40 mg/kg i.v. dose of hexobarbital both to the test and control groups. […] ED50 values were calculated from the thus-transformed data [Kaergaard Nielsen C. et al., Arch. Int. Pharmacodyn. 2, 170 (1967)].

catalepsy = experiment: Catalepsy; assay type: in vivo, rat (Wistar); details: rat
Method: The extrapyramidal syndrome, the most important side effect limiting the application of the neuroleptic drugs in man, can be produced in experimental animals in the form of catalepsy. Our experiments in 150-160 g Wistar rats were performed according to Morpurgo. The catalepsy, appearing 60 minutes after dosing, was scored as follows. Both forelegs of each animal were put for 10 seconds onto a rubber stopper of 3 cm height, then for additional 10 seconds onto a same stopper of 9 cm height. […] The procedure was repeated in each 30 minutes during four hours, obtaining scores proportional to the degree of the catalepsy. Results were used to calculate the minimum effective dose [MED, the lowest dose resulting statistically significant alteration, c.f.: Morpurgo, C.: Arch. Int.

shocks tolerated = experiment: Anxiolytic effect (Vogel et al.); assay type: in vivo, rat (male Wistar)
Method: The anxiolytic effect was tested by using the method of Vogel et al. Male Wistar rats of 160-180 g bodyweight were kept free of food and drinking water for 24 and 48 hours, respectively. Test and carrier substances were administered intraperitoneally two hours before testing. Animals within the experimental chamber were provided with drinking water through an inserted tube. After the animals' each twenty lapping for water the device emitted a 2 mA intensity electric shock through the drinking tube. During 5 minutes the shocks tolerated by the animals in order to quench their thirst were counted. The effect of treatment was expressed as the % increase of the tolerated shocks. The minimum effective dose (MED) was determined for each test compound [Voqel, J. R., Beer, B., Clody, D. E.: Psychopharmacologia (Berl.) 21, 1 (1971)].

spontaneous motility = experiment: Spontaneous motility inhibiting activity (Dews equipment); assay type: in vivo; details: Mus musculus, 0.5 h; oral, beam interruptions within 30 minutes; read-out: Motility inhibiting activity ID50
Method: The spontaneous motility inhibiting activity was examined according to the method of Borsy et al. Groups consisting of 3 mice each were treated orally with different doses of the compounds to be tested, then the test animals were placed in a Dews equipment. In this equipment the number of interruptions of infrared beam within 30 minutes was counted. […] [Borsy, J., Csanyi, E., Lazar, I.: Arch. Int.. Pharmacodyn. 124, 1 (1960)].

[4] = system: learned conditioned avoidance reflex; experiment: Antipsychotic effect: inhibition of conditioned avoidance reflex (shuttle box); assay type: in vivo, rat (male Wistar)
Method: The antipsychotic (neuroleptic) effect was measured by the inhibition of the learned conditioned avoidance reflex. The male Wistar rats used for the study were of 120-150 g bodyweight at the commencement of learning. […] In response to a suitable warning stimulus, in order to avoid the punishing (unconditioned) stimulus, animals within the box passed through the gate from one part over the other. The warning, i.e. conditioned stimulus (CS), a white light (1 Hz) blinking for 15 seconds, was applied at the place of the actual animal existence. The unconditioned stimulus (US), in form of 0.6 mA intensity electric shock, was randomly applied to the paw during the last 5 seconds of the conditioned stimulus. Animal's movement during the CS and US from one part of the box over the other, was defined as avoidance and escape responses, respectively. Both responses ceased the actual stimulus and stopped the trial. The time elapsed until the next trial (intertrial interval, ITI) was 15 seconds. While one experiment was carried out daily, an experiment consisted of 80 trials. Learning efficiency was expressed as percentage of the successful to the total avoidances. […] Dosing was carried out once a week, one hour before the measurement in the shuttle box.

[5] = system: experimental coronary insufficiency; experiment: Antianginal effect (glanduitrine-induced coronary insufficiency, Nieschultz); assay type: in vivo, rat (male); details: Rat2, iv; rat, 2 mg/kg, glanduitrine 4 NE/kg i.v., T-wave; read-out: Inhibition in a dose of 2 mg/kg
Method: The test was carried out on male rats weighing 180-220 g. The animals were narcotized with the aid of chloralose-urethane. ECG was registered by means of needle electrodes in standard II output. Antianginal effect was tested according to the method of Nieschultz. Experimental coronary insufficiency was induced by administering glanduitrine (4 NE/kg i.v.).

[6] = rat, p.o., 1 hour before carrageen, paw volume 3 hours after
[7] = mice, 0.75% acetic acid one hour after treatment

Structure (SMILES)	ED30 ([1]; Rattus norvegicus, 3 h) [mg/kg]	ED50 [2] [mg/kg]	LD50 at 168 h [3] [mg/kg]	ED50 (hexobarbital narcosis; Mus musculus, oral, 1 hour before hexobarbital 40 mg/kg i.v., sleeping time >2.5 times control, read-out: ED50 hexobarbital narcosis potentiation) [mg/kg]	tranquillo-sedative activity rank (in words) (hexobarbital narcosis; compared within the structural group)	ED30 [1, 6] [mg/kg]	Therapeutic index (Catalepsy MED / Conditioned Reflex ID50) (catalepsy)	Catalepsy MED (catalepsy; scored from 60 minutes after dosing, four hours) [mg/kg]	minimal effective dose (shocks tolerated; ip, 2 h, rat, intraperitoneal, two hours before testing, read-out: Anxiolytic effect MED) [mg/kg]	anxiolytic effect compared with Chlordiazepoxide and Meprobamate (in words) (shocks tolerated; rat)	character in smaller doses (in words) (shocks tolerated; smaller doses)	ED50 (spontaneous motility) [mg/kg]	ED50 [2, 7] [mg/kg]	ED50 ([4]; 1 h, rat, dosing one hour before measurement, read-out: Conditioned reflex ID50) [mg/kg]	character when administered in higher doses (in words) ([4]; higher doses)	antipsychotic effect compared with reference substances (in words) ([4]; rat)	inhibition in vivo at 2 mg/kg [5] [%]
CC(=O)Oc1ccccc1C(=O)O [Acetylsalicylic acid, reference compound]	62	261	–	–	–	–	–	–	–	–	–	–	–	–	–	–	–
OC(CNC1CC1)CON=C1CCc2c1ccc1ccccc21 (stereo not shown) [Example 17, 3-[3-(Cyclopropylamino)-2-hydroxypropoxyimino]-2,3-dihydro-1H-benz[e]indene]	–	–	660	11	the most active member in the structural group	40	3.8	100	0.1	superior to the reference substances by orders of magnitude	anxiolytic	6	14	26.3	neuroleptic	superior to Thioridazine and inferior to Chlorpromazine	50
CC(=O)Nc1ccc(O)cc1 [Paracetamol, reference compound]	–	–	–	–	–	195	–	–	–	–	–	–	421	–	–	–	–
